Measured values from patent US20230114946A1, “MESOSCALE NANOPARTICLES FOR SELECTIVE TARGETING TO THE KIDNEY AND METHODS OF THEIR THERAPEUTIC USE” (Memorial Sloan Kettering Cancer Center, priority 2015, published 2023).

Tested on: human kidney proximal tubular epithelial cell line HK-2
Assay: In vitro nanoparticle uptake
Format: cell-based
Settings: inhibitor of clathrin/caveolin-mediated endocytosis
Description: The following cell lines were used to determine uptake of anionic and cationic nanoparticles in vitro: MCF-7 human breast adenocarcinoma (ATCC; Manassas, Va.), SK-RC-48 human clear cell renal cell carcinoma (ccRCC) (Weill Cornell Medical College; New York, N.Y.), bEND3 mouse brain endothelial (ATCC), endothelial cell line EA-926, and human kidney proximal tubular epithelial cell line HK-2. MCF-7 cells were cultured in Dulbecco's Modified Eagle Medium (DMEM) with penicillin (10,000 U/mL)/streptomycin (10,000 U/mL)/glutamine (29.2 mg/mL) (Gibco; Carlsbad, Calif.), 0.01 mg/mL human recombinant insulin (Gibco), and 10% fetal bovine serum (FBS) (Gibco); SK-RC-48 were cultured in DMEM with 1× penicillin/streptomycin/glutamine and 10% FBS; and bEND3 cells in the same plus 1% glutaMAX (Gibco). HK-2 cells were cultured in Keratinocyte Serum Free Media (Gibco). EA-926 cells were cultured in RPMI-1640 medium (Gibco) supplemented with 10% FBS. Cells were passaged approximately weekly and media changed every 2-3 days. Cells were seeded into a 6-well cell culture dish for uptake studies. […]
Cells were incubated with 100 μg/mL NPs in 1 mL of their respective complete medias for 30 minutes. […] Cells were imaged with a fluorescence microscope using Cy5 filters.

SMILES: O=C(N/N=C/c1ccc(O)c(O)c1)c1cc2ccccc2cc1O [Dynasore]
- inhibition of MNP uptake into HK-2 cells: can be inhibited
